Measured values: PubChem BioAssay (NCI)
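Interpolation was linear, between the two tested concentrations surrounding the appropriate level; five concentrations were tested over 48 hours in 96-well plates. TGI is the concentration that stops growth completely.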

Tests used:
Experiment in all cases: growth of human tumour cells (NCI), 48 h
[1] = test system: CCRF-CEM leukemia
[2] = test system: DLD-1 colon
[3] = test system: DMS 114 small cell lung
[4] = test system: DMS 273 small cell lung
[5] = test system: EKVX NSCLC
[6] = test system: HCT-116 colon
[7] = test system: HL-60(TB) leukemia
[8] = test system: HOP-62 NSCLC
[9] = test system: IGROV1 ovarian
[10] = test system: KM20L2 colon
[11] = test system: M19-MEL melanoma
[12] = test system: NCI-H226 lung
[13] = test system: NCI-H460 lung
[14] = test system: NCI-H522 lung
[15] = test system: SF-539 CNS
[16] = test system: SNB-75 CNS
[17] = test system: SNB-78 CNS
[18] = test system: SW-620 colon
[19] = test system: U251 CNS
[20] = test system: UACC-62 melanoma

Which results are given for `CN(C)CCNC(=O)c1cc(Cl)cc2ccc(-c3ccccc3)nc12`?
TGI [1]: 6.01 µM; TGI [2]: 12.9 µM; TGI [3]: 12.6 µM; TGI [4]: 7.48 µM; TGI [5]: 21.5 µM; TGI [6]: 10.7 µM; TGI [7]: 4.88 µM; TGI [8]: 10.3 µM; TGI [9]: 14.2 µM; TGI [10]: 13.1 µM; TGI [11]: 11.4 µM; TGI [12]: 7.02 µM; TGI [13]: 7.09 µM; TGI [14]: 16 µM; TGI [15]: 9.18 µM; TGI [16]: 14 µM; TGI [17]: 24.9 µM; TGI [18]: 13.4 µM; TGI [19]: 15.3 µM; TGI [20]: 6.36 µM

For `CCCCOc1ccc(OCCCCCCCCCC[N+](C)(C)C)cc1`, which TGI [1] is on record?
The TGI was 3.87 µM.

What about the TGI [2] of the same compound?
The TGI was 21.5 µM.

What about the TGI [3] of the same compound?
Its TGI is 6.75 µM.

What about the TGI [4] of the same compound?
The TGI was 4.25 µM.

And the TGI [5]?
Its TGI is 46 µM.

What about the TGI [6] of the same compound?
The TGI was 9.31 µM.

And the TGI [7]?
The TGI was 1.49 µM.

What about the TGI [8] of the same compound?
Its TGI is 13.7 µM.

And the TGI [9]?
The TGI was 3.52 µM.

What about the TGI [10] of the same compound?
The TGI was 3.87 µM.

What about the TGI [12] of the same compound?
The TGI was 15.2 µM.

What about the TGI [13] of the same compound?
Its TGI is 12.7 µM.

What about the TGI [14] of the same compound?
The TGI was 5.22 µM.

What about the TGI [15] of the same compound?
The TGI was 14.3 µM.

What about the TGI [16] of the same compound?
Its TGI is 6.44 µM.

What about the TGI [17] of the same compound?
Its TGI is 9.78 µM.

What about the TGI [18] of the same compound?
The TGI was 14.9 µM.

And the TGI [19]?
The TGI was 9.16 µM.

What about the TGI [20] of the same compound?
The TGI was 15.7 µM.

For `NCCCCNCCCNC(=O)c1nc(-c2nc(CCN)sc2Cl)sc1Cl`, which TGI [1] is on record?
The TGI was greater than 100 µM.

What about the TGI [2] of the same compound?
Its TGI is greater than 100 µM.

And the TGI [3]?
The TGI was 52.5 µM.

What about the TGI [4] of the same compound?
The TGI was greater than 100 µM.

What about the TGI [5] of the same compound?
The TGI was greater than 100 µM.

What about the TGI [6] of the same compound?
The TGI was greater than 100 µM.

What about the TGI [7] of the same compound?
The TGI was greater than 100 µM.

What about the TGI [8] of the same compound?
The TGI was greater than 100 µM.

What about the TGI [9] of the same compound?
The TGI was greater than 100 µM.

And the TGI [10]?
Its TGI is greater than 100 µM.

And the TGI [11]?
The TGI was greater than 100 µM.

What about the TGI [12] of the same compound?
The TGI was greater than 100 µM.

And the TGI [13]?
Its TGI is greater than 100 µM.

What about the TGI [14] of the same compound?
Its TGI is 55.9 µM.

And the TGI [15]?
Its TGI is greater than 100 µM.

What about the TGI [16] of the same compound?
The TGI was greater than 100 µM.

And the TGI [17]?
Its TGI is greater than 100 µM.

And the TGI [18]?
The TGI was greater than 100 µM.

And the TGI [19]?
Its TGI is greater than 100 µM.

And the TGI [20]?
The TGI was greater than 100 µM.

For `Cc1cc(C)nc(NS(=O)(=O)c2ccc(Nc3c4ccccc4nc4c(C(=O)N5CCN(CCOS(C)(=O)=O)CC5)cccc34)cc2)n1`, which TGI [1] is on record?
Its TGI is greater than 100 µM.

What about the TGI [2] of the same compound?
The TGI was greater than 100 µM.

And the TGI [3]?
Its TGI is greater than 100 µM.

And the TGI [6]?
Its TGI is greater than 100 µM.

What about the TGI [7] of the same compound?
Its TGI is greater than 100 µM.

What about the TGI [8] of the same compound?
Its TGI is greater than 100 µM.

And the TGI [9]?
Its TGI is greater than 100 µM.

What about the TGI [10] of the same compound?
The TGI was greater than 100 µM.

What about the TGI [11] of the same compound?
Its TGI is greater than 100 µM.

What about the TGI [12] of the same compound?
The TGI was greater than 100 µM.

And the TGI [13]?
The TGI was greater than 100 µM.

What about the TGI [15] of the same compound?
Its TGI is greater than 100 µM.

And the TGI [16]?
Its TGI is greater than 100 µM.

What about the TGI [17] of the same compound?
Its TGI is greater than 100 µM.

And the TGI [19]?
The TGI was greater than 100 µM.

And the TGI [20]?
The TGI was greater than 100 µM.
